Data published in patent US20040087792A1, “Tryptase-inhibitors” (priority 2001, published 2004).
Counter-ions that a name gives are not always drawn.

Target: human tryptase
Experiment: Inhibition of human tryptase (equilibrium, chromogenic substrate tos-Gly-Pro-arg-pNA)
Type: biochemical
Details: in the presence of substrate; heparin 0.1-50 μg/ml; cleavage monitored at 405 nm; read-out: Klapp (apparent dissociation constant Kiapp)
Description: The documented pathophysiological effects of mast cell tryptase are caused directly by the enzymatic activity of the protease. Accordingly, they are reduced or blocked by inhibitors which inhibit the enzymatic activity of the tryptase. A suitable measure for the affinity of a reversible inhibitor to the target protease is the equilibrium dissociation constant Ki of the enzyme-inhibitor complex. This Ki value can be determined via the effect of the inhibitor on the tryptase-induced cleavage of a chromogenic peptide-p-nitroanilide substrate or a fluorogenic peptide-aminomethylcoumarin substrate.
The dissociation constants for the tryptase-inhibitor complexes are determined under equilibrium conditions in accordance with the general proposals of Bieth (Bieth J G, Pathophysiological Interpretation of kinetic constants of protease inhibitors, Bull. Europ. Physiopath. Resp. 16:183-195, 1980) and the methods of Sommerhoff et al. (Sommerhoff C P et al., A Kazal-type inhibitor of human mast cell tryptase: Isolation from the medical leech Hirudo medicinalis, characterization, and sequence analysis, Biol. Chem. Hoppe-Seyler 375: 685-694, 1994).
Human tryptase is isolated from lung tissue or prepared recombinantly; the specific activity of the protease, determined by titration, is usually greater than 85% of the theoretical value. […]

| Ki [nM] | SMILES |
| --- | --- |
| 35 | CCOC(=O)CN(CCNC(=O)OCC#Cc1ccc(C#CCOC(=O)NCCN(CC(=O)OCC)C(=O)CCc2ccc(CN)cc2)cc1)C(=O)CCc1ccc(CN)cc1 [Compound 1, 1,4-Bis-{N-[3-(4-aminomethyl-phenyl)-propionyl]-N-(ethoxycarbonyl-methyl)-amino-3-(ethyl-aminocarbonyloxy)-prop-1-ynyl}-benzene dihydrochloride] |
| 5.4 | CCOC(=O)CN(CCNC(=O)OCC#CCOC(=O)NCCN(CC(=O)OCC)C(=O)CCc1ccc(CN)cc1)C(=O)CCc1ccc(CN)cc1 [Compound 3, 1,4-Bis{N-[3-(4-(aminomethyl-phenyl)-propionyl]-N-(ethoxycarbonyl-methyl)-amino-3-(ethyl-aminocarbonyloxy)}-2-butynedihydrochloride] |
